Laboratory results published in patent publication US11141413B2, “Method of treating renal cell carcinoma using N-(4-(6,7-dimethoxyquinolin-4-yloxy)phenyl)-N′-(4-fluorophenyl)cyclopropane-1,1-dicarboxamide, (2S)-hydroxybutanedioate” (Exelixis, Inc., priority 2016, dated 2021).
“And” between values parts separate entries of the source, which are not always exact repeats. Identical values can stand only once.

System: advanced renal cell carcinoma (RCC)
Experiment: METEOR (Study 1) randomized phase 3 trial, cabozantinib vs everolimus: PFS, OS, ORR
Type: in vivo, human
Details: for ORR (95% CI), IRC / ORR (95% CI), Investigator assessed / Progressive disease, IRC / Progressive disease, Investigator assessed / Stable disease, IRC / Stable disease, Investigator assessed / Confirmed ORR (95% CI), IRC / Confirmed ORR (95% CI), Investigator assessed / Confirmed responses (95% CI), IRC / Confirmed responses (95% CI), Investigator assessed: RECIST 1.1; for PFS event: all randomized
[1] = Patients With High Tumor Burden
[2] = Pts with Bone and Visceral Metastases
[3] = prior therapy subgroup Anti-PD-1/PD-L1
[4] = prior therapy subgroup Pazopanib Only
[5] = prior therapy subgroup Sunitinib Only

CO[C@H]1C[C@@H]2CC[C@@H](C)[C@@](O)(O2)C(=O)C(=O)N2CCCC[C@H]2C(=O)O[C@H]([C@H](C)C[C@@H]2CC[C@@H](OCCO)[C@H](OC)C2)CC(=O)[C@H](C)/C=C(\C)[C@@H](O)[C@@H](OC)C(=O)[C@H](C)C[C@H](C)/C=C/C=C/C=C/1C [everolimus]
Kaplan-Meier estimate of % of patients alive (6 Months landmark): 81% (76%, 85%) | Kaplan-Meier estimate of % of patients alive (12 Months landmark): 63% and 63% (58%, 78%) | Kaplan-Meier estimate of % of patients alive (18 Months landmark): 47% | Kaplan-Meier estimate of % of patients alive (18 Months landmark, listed as Everolimus): 47% (41%, 52%) | Kaplan-Meier estimate of % of patients alive (24 Months landmark): 31% (23%, 39%) | ORR (95% CI), IRC (Asia Pacific): 2 (0-11) % | ORR (95% CI), Investigator assessed (Asia Pacific): 4 (1-15) % | Progressive disease, IRC (Asia Pacific): 28% | Progressive disease, Investigator assessed (Asia Pacific): 26% | Stable disease, IRC (Asia Pacific): 60% | Stable disease, Investigator assessed (Asia Pacific): 60% | ORR (95% CI), IRC (Europe): 4 (1-8) % | ORR (95% CI), Investigator assessed (Europe): 4 (1-8) % | Progressive disease, IRC (Europe): 24% | Progressive disease, Investigator assessed (Europe): 25% | Stable disease, IRC (Europe): 65% | Stable disease, Investigator assessed (Europe): 66% | Median OS (ITT, all 658 randomized, cutoff Dec. 31, 2015): 16.5 months | Median OS (ITT, all 658 randomized, cutoff Dec. 31, 2015, listed as Everolimus): 16.5 (14.7, 18.8) months | Objective response rate (confirmed, partial responses only) per IRC (ITT, all 658 randomized, cutoff May 22, 2015): 3% | Objective response rate (confirmed, partial responses only) per IRC (ITT, all 658 randomized, cutoff May 22, 2015, listed as eve): 3% | ORR (95% CI), IRC (North America): 2 (1-7) % | ORR (95% CI), Investigator assessed (North America): 3 (1-8) % | Progressive disease, IRC (North America): 30% | Progressive disease, Investigator assessed (North America): 29% | Stable disease, IRC (North America): 59% | Stable disease, Investigator assessed (North America): 62% | Confirmed ORR (95% CI), IRC [1]: 0% | Confirmed ORR (95% CI), Investigator assessed [1]: 1 (0-4) % | Progressive disease, IRC [1]: 26% | Progressive disease, Investigator assessed [1]: 27% | Stable disease, IRC [1]: 64% | Stable disease, Investigator assessed [1]: 62% | Confirmed ORR (95% CI), IRC (Patients With Low Tumor Burden): 7 (3-12) % | Confirmed ORR (95% CI), Investigator assessed (Patients With Low Tumor Burden): 7 (4-13) % | Progressive disease, IRC (Patients With Low Tumor Burden): 28% | Progressive disease, Investigator assessed (Patients With Low Tumor Burden): 27% | Stable disease, IRC (Patients With Low Tumor Burden): 60% | Stable disease, Investigator assessed (Patients With Low Tumor Burden): 64% | Confirmed responses (95% CI), IRC (Pts with Bone Metastases): 0% | Confirmed responses (95% CI), Investigator assessed (Pts with Bone Metastases): 0% | Progressive disease, IRC (Pts with Bone Metastases): 37% | Progressive disease, Investigator assessed (Pts with Bone Metastases): 26% | Stable disease, IRC (Pts with Bone Metastases): 54% | Stable disease, Investigator assessed (Pts with Bone Metastases): 63% | Confirmed responses (95% CI), IRC [2]: 0% | Confirmed responses (95% CI), Investigator assessed [2]: 0% | Progressive disease, IRC [2]: 44% | Progressive disease, Investigator assessed [2]: 29% | Stable disease, IRC [2]: 44% | Stable disease, Investigator assessed [2]: 59% | Confirmed responses (95% CI), IRC (Pts without Bone Metastases): 4 (2-7) % | Confirmed responses (95% CI), Investigator assessed (Pts without Bone Metastases): 5 (3-9) % | Progressive disease, IRC (Pts without Bone Metastases): 24% | Progressive disease, Investigator assessed (Pts without Bone Metastases): 26% | Stable disease, IRC (Pts without Bone Metastases): 64% | Stable disease, Investigator assessed (Pts without Bone Metastases): 63% | Objective response rate per investigator (all 658 randomized, cutoff May 22, 2015): 4% | Median duration of PFS (all 658 randomized, per IRC, cutoff May 22, 2015): 3.9 months | Median duration of PFS (all 658 randomized, per IRC, cutoff May 22, 2015, listed as Everolimus): 3.9 (3.7-5.1) months and 3.9 months | Median duration of PFS (all 658 randomized, per investigator, cutoff May 22, 2015): 5.1 (3.9-5.5) months | PFS event (per IRC, cutoff May 22, 2015): 214 (66) ^ n (%) | PFS event (per investigator, cutoff May 22, 2015): 233 (71) ^ n (%) | Median PFS (first 375 randomized, per independent radiology review committee (IRC)): 3.8 months | Median PFS (first 375 randomized, per independent radiology review committee (IRC), listed as Everolimus): 3.8 (3.7, 5.4) months | Median PFS (first 375 randomized, per independent radiology review committee (IRC), listed as eve): 3.8 months | Median OS (high MET tumor expression): 15.2 months | Median OS (high tumor burden): 12.2 mo | Patients with reduction in measurable tumor lesion size (in vivo): 48% | Median OS (low MET tumor expression): 18.4 months | Median OS (low tumor burden): 19.3 mo | Median OS (patients enrolled in Canada): 12.8 mo | Median PFS (patients enrolled in Canada): 3.7 mo | ORR (patients enrolled in Canada): 0% | Median PFS (patients with bone and visceral metastases): 1.9 mo | Median PFS (patients with bone metastases): 2.7 mo | Best overall response: confirmed complete response (per IRC): 0 n | Best overall response: confirmed partial response (per IRC): 11 n | Best overall response: confirmed complete response (per investigator): 0 n | Confirmed ORR (95% CI), tumor response by IRC [3]: 0% | Confirmed ORR (95% CI), tumor response by investigator [3]: 0% | Progressive disease, tumor response by IRC [3]: 29% | Progressive disease, tumor response by investigator [3]: 14% | Stable disease, tumor response by IRC [3]: 64% | Stable disease, tumor response by investigator [3]: 86% | Confirmed ORR (95% CI), tumor response by IRC [4]: 4 (1-10) % | Confirmed ORR (95% CI), tumor response by investigator [4]: 4 (1-10) % | Progressive disease, tumor response by IRC [4]: 22% | Progressive disease, tumor response by investigator [4]: 27% | Stable disease, tumor response by IRC [4]: 66% | Stable disease, tumor response by investigator [4]: 64% | Confirmed ORR (95% CI), tumor response by IRC [5]: 3 (1-8) % | Confirmed ORR (95% CI), tumor response by investigator [5]: 4 (1-9) % | Progressive disease, tumor response by IRC [5]: 35% | Progressive disease, tumor response by investigator [5]: 29% | Stable disease, tumor response by IRC [5]: 57% | Stable disease, tumor response by investigator [5]: 63% | Deaths (second interim analysis of OS, of randomized patients): 55%
